# Reference: EPA's ToxRefDB 2
# Assays:
# rat [1] = settings: Combined chronic toxicity/carcinogenicity, fischer, Oral, [Not Specified], dose end: 123 week, group: systemic
# dog [2] = settings: Chronic toxicity; beagle; Oral; Capsule; dose end: 52 week; group: systemic; systemic / in life observation / clinical signs / ataxia + systemic / in life observation / clinical signs / squinting + systemic / in life …
# mouse [3] = settings: Carcinogenicity, cd1, Oral, Feed, dose end: 81 week, group: systemic
# rabbit = settings: Prenatal developmental toxicity study, new zealand white, Oral, Gavage/Intubation, dose end: 19 GD
# mouse [4] = settings: Sub-acute repeat dose toxicity, cd1, Oral, Feed, dose end: 5 week, group: systemic
# rat [5] = settings: Subchronic oral toxicity in rodents, sprague dawley, Feed, dose end: 13 week, group: systemic
# rat [6] = settings: Combined chronic toxicity/carcinogenicity, sprague dawley, Oral, Feed, dose end: 105 week, group: systemic
# rat [7] = settings: Chronic toxicity, Oral, Diet, dose end: 53 week, group: systemic
# dog [8] = settings: Subchronic oral toxicity in nonrodent, beagle, Gavage/Intubation, dose end: 14 week, group: systemic
# dog [9] = settings: Chronic toxicity; beagle; Oral; Gavage/Intubation; dose end: 53 week; group: systemic; systemic / in life observation / clinical signs / stiffness + systemic / in life observation / clinical signs / tremors + systemic / …
# rat [10] = settings: Multigenerational reproductive toxicity study, Sprague-Dawley, Oral, Feed, dose end: 2 generation
# rat [11] = settings: Prenatal developmental toxicity study, sprague dawley, Oral, Gavage/Intubation, dose end: 18 GD
# rat [12] = settings: Prenatal developmental toxicity study, wistar, Oral, Gavage/Intubation, dose end: 15 GD
# rat [13] = settings: Combined chronic toxicity/carcinogenicity, sprague dawley, Oral, Feed, dose end: 24 month, group: systemic
# rat [14] = settings: Prenatal developmental toxicity study, sprague dawley, Oral, Gavage/Intubation, dose end: 15 GD
# rat [15] = settings: Multigenerational reproductive toxicity study, sprague dawley, Oral, Feed, dose end: 2 generation
# dog [16] = settings: Chronic toxicity; beagle; Oral; Feed; dose end: 52 week; group: systemic; systemic / organ weight / kidney / absolute + systemic / organ weight / kidney / relative to body weight + systemic / pathology microscopic…
# rat [17] = settings: Subchronic oral toxicity in rodents, sprague dawley, Feed, dose end: 90 day, group: systemic
# mouse [18] = settings: Subchronic oral toxicity in rodents, cd1, Feed, dose end: 13 week, group: systemic
# [19] = systemic / organ weight / liver / absolute + systemic / organ weight / liver / relative to body weight + systemic / urinalysis / specific …
# [20] = systemic / organ weight / liver / relative to body weight + systemic / pathology microscopic / liver / fatty change
# [21] = systemic / organ weight / liver / relative to body weight + systemic / pathology microscopic / liver / fatty change + systemic / pathology …
# [22] = group: developmental, developmental / developmental malformation / bone / fused + developmental / developmental malformation / bone / thoracic hemivertebra
# [23] = group: maternal, systemic / in life observation / body weight / body weight gain + systemic / in life observation / clinical signs / convulsions + systemic…
# [24] = systemic / clinical chemistry / alanine aminotransferase (alt/sgpt) / alanine aminotransferase (alt/sgpt) + systemic / clinical chemistry / …
# [25] = systemic / clinical chemistry / triglycerides / triglycerides
# [26] = systemic / in life observation / body weight / body weight + systemic / in life observation / clinical signs / emaciation + systemic / in …
# [27] = systemic / in life observation / body weight / body weight + systemic / in life observation / body weight / body weight gain + systemic / in…
# [28] = systemic / in life observation / clinical signs / locomotion + systemic / in life observation / clinical signs / motor activity + systemic…
# [29] = systemic / pathology microscopic / brain / degeneration + systemic / pathology microscopic / skeletal muscle / atrophy + systemic / in life …
# [30] = systemic / pathology microscopic / brain / degeneration + systemic / pathology microscopic / skeletal muscle / atrophy + systemic / …
# [31] = group: maternal, systemic / in life observation / body weight / body weight gain
# [32] = group: offspring, developmental / developmental malformation / limb / [other] + systemic / in life observation / clinical signs / tremors
# [33] = group: parental, systemic / pathology microscopic / brain / degeneration + systemic / pathology microscopic / spinal cord / degeneration + systemic / in life…
# [34] = group: reproductive, reproductive / reproductive performance / fertility / fertility
# [35] = group: developmental, developmental / developmental malformation / bone / full supernumerary + developmental / developmental malformation / bone / incomplete …
# [36] = group: developmental, systemic / in life observation / body weight / fetal weight
# [37] = group: maternal, systemic / in life observation / body weight / body weight gain + reproductive / reproductive performance / reproductive performance other…
# [38] = systemic / organ weight / adrenal gland / nos + systemic / organ weight / pituitary gland / nos + systemic / in life observation / clinical …
# [39] = group: developmental, developmental / developmental malformation / bone / full supernumerary + developmental / developmental malformation / general / crown-rump …
# [40] = group: maternal, systemic / in life observation / body weight / body weight gain + systemic / in life observation / clinical signs / body surface staining + …
# [41] = group: parental, systemic / organ weight / liver / absolute + systemic / organ weight / liver / relative to body weight + systemic / pathology microscopic / …
# [42] = group: reproductive, reproductive / reproductive performance / gestational length / gestational length
# [43] = systemic / clinical chemistry / calcium / calcium
smiles,measurement,setting,value
C=CCC1=C(C)C(OC(=O)C2C(C=C(C)C)C2(C)C)CC1=O (configuration not stated) [Allethrin],LOAEL,rat [1]; systemic / organ weight / liver / absolute + systemic / organ weight / liver / relative to body weight,24.5 mg/kg/day
same,LEL,rat [1]; [19],5.9 mg/kg/day
same,NEL,rat [1]; [19],< 5.9 mg/kg/day
same,NOAEL,rat [1]; [19],5.9 mg/kg/day
same,LEL,dog [2],20 mg/kg/day
same,LOAEL,dog [2],20 mg/kg/day
same,NEL,dog [2],6 mg/kg/day
same,NOAEL,dog [2],6 mg/kg/day
same,NEL,mouse [3]; [20],71.6 mg/kg/day
same,NOAEL,mouse [3]; [20],71.6 mg/kg/day
same,LEL,mouse [3]; [21],350 mg/kg/day
same,LOAEL,mouse [3]; [21],350 mg/kg/day
same,LEL,rabbit; [22],350 mg/kg/day
same,LOAEL,rabbit; [22],350 mg/kg/day
same,NEL,rabbit; [22],100 mg/kg/day
same,NOAEL,rabbit; [22],100 mg/kg/day
same,LEL,rabbit; [23],350 mg/kg/day
same,LOAEL,rabbit; [23],350 mg/kg/day
same,NEL,rabbit; [23],100 mg/kg/day
same,NOAEL,rabbit; [23],100 mg/kg/day
same,LOAEL,mouse [4]; [24],1520 mg/kg/day
same,NOAEL,mouse [4]; [24],438 mg/kg/day
same,LEL,mouse [4]; [25],14 mg/kg/day
same,NEL,mouse [4]; [25],< 14 mg/kg/day
CC[C@H](C)[C@H]1O[C@]2(C=C[C@@H]1C)C[C@@H]1C[C@@H](C/C=C(\C)[C@@H](O[C@H]3C[C@H](OC)[C@@H](O[C@H]4C[C@H](OC)[C@@H](NC)[C@H](C)O4)[C@H](C)O3)[C@@H](C)/C=C/C=C3\CO[C@@H]4[C@H](O)C(C)=C[C@@H](C(=O)O1)[C@]34O)O2.O=C(O)c1ccccc1 [Emamectin benzoate],LOAEL,rat [5]; [26],6.7 mg/kg/day
same,NOAEL,rat [5]; [26],2.5 mg/kg/day
same,LEL,rat [5]; systemic / pathology microscopic / eye / vacuolization,2.5 mg/kg/day
same,NEL,rat [5]; systemic / pathology microscopic / eye / vacuolization + systemic / in life observation / body weight / body weight + systemic / in life …,0.5 mg/kg/day
same,NEL,rat [6]; systemic / clinical chemistry / triglycerides / triglycerides + systemic / in life observation / body weight / body weight + systemic / …,0.25 mg/kg/day
same,LOAEL,rat [6]; [27],2.51 mg/kg/day
same,NOAEL,rat [6]; [27],1.01 mg/kg/day
same,LEL,rat [6]; systemic / pathology microscopic / skin / fibroma + systemic / pathology gross / skin / nodule(s) + systemic / clinical chemistry / …,1.01 mg/kg/day
same,NEL,rat [7]; systemic / in life observation / body weight / body weight + systemic / in life observation / clinical signs / fur (altered appearance) + …,1 mg/kg/day
same,LEL,rat [7]; [28],2.5 mg/kg/day
same,LOAEL,rat [7]; [28],2.5 mg/kg/day
same,NOAEL,rat [7]; [28],1 mg/kg/day
same,NEL,dog [8]; [29],0.25 mg/kg/day
same,NOAEL,dog [8]; [29],0.25 mg/kg/day
same,LEL,dog [8]; [30],0.5 mg/kg/day
same,LOAEL,dog [8]; [30],0.5 mg/kg/day
same,LEL,dog [9],0.5 mg/kg/day
same,LOAEL,dog [9],0.5 mg/kg/day
same,NEL,dog [9],0.25 mg/kg/day
same,NOAEL,dog [9],0.25 mg/kg/day
same,LEL,rat [10]; [31],1.8 mg/kg/day
same,LOAEL,rat [10]; [31],1.8 mg/kg/day
same,NEL,rat [10]; [31],0.6 mg/kg/day
same,NOAEL,rat [10]; [31],0.6 mg/kg/day
same,LOAEL,rat [10]; [32],1.8 mg/kg/day
same,NEL,rat [10]; [32],0.6 mg/kg/day
same,NOAEL,rat [10]; [32],0.6 mg/kg/day
same,LEL,"rat [10]; group: offspring, developmental / developmental malformation / limb / [other] + systemic / in life observation / clinical signs / tremors + systemic / in life…",1.8 mg/kg/day
same,LOAEL,"rat [10]; group: parental, systemic / pathology microscopic / brain / degeneration + systemic / pathology microscopic / spinal cord / degeneration",3.6 mg/kg/day
same,LEL,rat [10]; [33],3.6 mg/kg/day
same,NEL,rat [10]; [33],1.8 mg/kg/day
same,NOAEL,rat [10]; [33],1.8 mg/kg/day
same,LEL,rat [10]; [34],3.6 mg/kg/day
same,LOAEL,rat [10]; [34],3.6 mg/kg/day
same,NEL,rat [10]; [34],1.8 mg/kg/day
same,NOAEL,rat [10]; [34],1.8 mg/kg/day
same,LEL,rat [11]; [35],8 mg/kg/day
same,LOAEL,rat [11]; [35],8 mg/kg/day
same,NEL,rat [11]; [35],4 mg/kg/day
same,NOAEL,rat [11]; [35],4 mg/kg/day
same,LEL,rat [11]; [31],4 mg/kg/day
same,LOAEL,rat [11]; [31],4 mg/kg/day
same,NEL,rat [11]; [23],2 mg/kg/day
same,NOAEL,rat [11]; [23],2 mg/kg/day
FC(F)C(F)(F)OCC(Cn1cncn1)c1ccc(Cl)cc1Cl (configuration not stated) [Tetraconazole],LEL,rat [12]; [36],100 mg/kg/day
same,LOAEL,rat [12]; [36],100 mg/kg/day
same,NEL,rat [12]; [36],30 mg/kg/day
same,NOAEL,rat [12]; [36],30 mg/kg/day
same,LOAEL,rat [12]; [31],100 mg/kg/day
same,LEL,rat [12]; [37],100 mg/kg/day
same,NEL,rat [12]; [37],30 mg/kg/day
same,NOAEL,rat [12]; [37],30 mg/kg/day
same,LEL,rat [13]; systemic / clinical chemistry / alanine aminotransferase (alt/sgpt) / alanine aminotransferase (alt/sgpt),3.4 mg/kg/day
same,LOAEL,rat [13]; [38],27.7 mg/kg/day
same,NEL,rat [13]; [38],0.4 mg/kg/day
same,NOAEL,rat [13]; [38],3.4 mg/kg/day
same,LEL,rat [14]; [39],100 mg/kg/day
same,LOAEL,rat [14]; [39],100 mg/kg/day
same,NEL,rat [14]; [39],22.5 mg/kg/day
same,NOAEL,rat [14]; [39],22.5 mg/kg/day
same,LEL,rat [14]; [40],22.5 mg/kg/day
same,LOAEL,rat [14]; [40],> 100 mg/kg/day
same,NEL,rat [14]; [40],5 mg/kg/day
same,NOAEL,rat [14]; [40],≥ 100 mg/kg/day
same,LOAEL,"rat [15]; group: offspring, systemic / in life observation / body weight / offspring (pup) weight + systemic / organ weight / liver / relative to body weight",35.5 mg/kg/day
same,NOAEL,"rat [15]; group: offspring, systemic / in life observation / body weight / offspring (pup) weight + systemic / organ weight / liver / relative to body weight + systemic…",4.9 mg/kg/day
same,LEL,"rat [15]; group: offspring, systemic / organ weight / liver / relative to body weight",5.9 mg/kg/day
same,NEL,"rat [15]; group: offspring, systemic / organ weight / liver / relative to body weight + systemic / in life observation / body weight / offspring (pup) weight + systemic…",0.8 mg/kg/day
same,LOAEL,rat [15]; [41],35.5 mg/kg/day
same,NOAEL,rat [15]; [41],4.9 mg/kg/day
same,LEL,"rat [15]; group: parental, systemic / organ weight / liver / relative to body weight",6 mg/kg/day
same,NEL,"rat [15]; group: parental, systemic / organ weight / liver / relative to body weight + systemic / in life observation / body weight / body weight gain + systemic / in …",0.8 mg/kg/day
same,LEL,rat [15]; [42],5.9 mg/kg/day
same,LOAEL,rat [15]; [42],5.9 mg/kg/day
same,NEL,rat [15]; [42],0.8 mg/kg/day
same,NOAEL,rat [15]; [42],0.8 mg/kg/day
same,LEL,dog [16],2.95 mg/kg/day
same,LOAEL,dog [16],2.95 mg/kg/day
same,NEL,dog [16],0.73 mg/kg/day
same,NOAEL,dog [16],0.73 mg/kg/day
same,LEL,rat [17]; [43],0.7 mg/kg/day
same,NEL,rat [17]; [43],< 0.7 mg/kg/day
same,NOAEL,rat [17]; systemic / clinical chemistry / calcium / calcium + systemic / in life observation / body weight / body weight gain + systemic / organ …,4.1 mg/kg/day
same,LOAEL,rat [17]; systemic / in life observation / body weight / body weight gain + systemic / organ weight / liver / relative to body weight + systemic / …,23.9 mg/kg/day
same,LOAEL,mouse [18]; [24],20 mg/kg/day
same,NOAEL,mouse [18]; [24],4 mg/kg/day
same,LEL,mouse [18]; systemic / pathology microscopic / liver / hypertrophy + systemic / pathology microscopic / liver / degeneration,16 mg/kg/day
same,NEL,mouse [18]; systemic / pathology microscopic / liver / hypertrophy + systemic / pathology microscopic / liver / degeneration + systemic / clinical …,4 mg/kg/day
